Data as given in publication PMC4578337, “New depsidones and isoindolinones from the mangrove endophytic fungus Meyerozyma guilliermondii (HZ-Y2) isolated from the South China Sea” (Beilstein Journal of Organic Chemistry, 2015).

Key:
α-glucosidase [1] = molecular target: T1, α-glucosidase (Saccharomyces cerevisiae, UniProt P53341); assay: kinetic analysis of the inhibition of α-glucosidase; assay type: biochemical; conditions: Figure 4
Experimental: (§1) Biological assays. The assays for α-glucosidase and MptpB inhibition inhibitory activities were carried out as described previously.

α-glucosidase [2] = molecular target: T1, α-glucosidase; assay: α-glucosidase inhibitory activity assay; assay type: biochemical; conditions: qualitative statement
Experimental: as §1

T1 sequence (P53341 whole entry): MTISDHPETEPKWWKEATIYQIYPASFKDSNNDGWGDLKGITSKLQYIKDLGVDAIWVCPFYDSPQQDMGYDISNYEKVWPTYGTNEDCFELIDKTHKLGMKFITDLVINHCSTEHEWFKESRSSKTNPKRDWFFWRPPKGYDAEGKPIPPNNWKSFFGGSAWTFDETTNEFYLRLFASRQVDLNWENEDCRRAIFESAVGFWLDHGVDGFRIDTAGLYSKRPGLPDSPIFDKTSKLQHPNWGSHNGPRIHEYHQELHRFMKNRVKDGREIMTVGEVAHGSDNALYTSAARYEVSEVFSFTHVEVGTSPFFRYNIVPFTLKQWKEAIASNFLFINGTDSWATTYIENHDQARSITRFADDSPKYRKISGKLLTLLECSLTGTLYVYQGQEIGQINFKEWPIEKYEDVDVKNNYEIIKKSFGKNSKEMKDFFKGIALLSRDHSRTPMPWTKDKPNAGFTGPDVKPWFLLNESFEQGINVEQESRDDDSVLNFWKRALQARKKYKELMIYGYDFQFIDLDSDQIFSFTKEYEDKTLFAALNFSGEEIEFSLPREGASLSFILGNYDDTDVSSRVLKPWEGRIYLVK

Structure (SMILES) | type of α-glucosidase inhibition (kinetic studies) (α-glucosidase [1]) | α-glucosidase inhibitory activity (in words) (α-glucosidase [2])
Cc1cc(O)cc2c1Oc1c(CO)c(O)cc(C)c1C(=O)O2 [Compound 6, botryorhodine D] | noncompetitive inhibitors | –
O=C1NC(=O)c2c(O)cc(O)cc21 [Compound 10, 4,6-dihydroxy-1H-isoindole-1,3(2H)-dione] | – | moderate to weak activities
O=C1NCc2c(O)cc(O)cc21 [Compound 8, 4,6-dihydroxy-2,3-dihydro-1H-isoindol-1-one] | – | moderate to weak activities
Cc1cc(O)c(C)c2c1Oc1c(O)c(O)cc(C)c1C(=O)O2 [Compound 2, Botryorhodine F] | noncompetitive inhibitors | –
O=C(O)CCCCN1Cc2c(O)cc(O)cc2C1=O [Compound 7, Meyeroguilline A] | – | promising α-glucosidase inhibitory activity
